“Also recorded” adds a separate entry of the source.

A short description of data set [1]: Metabolic stability in hepatocytes. It is filed as in vitro ADME, and mouse. Conditions: rat, dog, mouse.
The target of another data set is T1, CYP450 2B6 (Homo sapiens, UniProt P20813).
T1 sequence (P20813 1-491): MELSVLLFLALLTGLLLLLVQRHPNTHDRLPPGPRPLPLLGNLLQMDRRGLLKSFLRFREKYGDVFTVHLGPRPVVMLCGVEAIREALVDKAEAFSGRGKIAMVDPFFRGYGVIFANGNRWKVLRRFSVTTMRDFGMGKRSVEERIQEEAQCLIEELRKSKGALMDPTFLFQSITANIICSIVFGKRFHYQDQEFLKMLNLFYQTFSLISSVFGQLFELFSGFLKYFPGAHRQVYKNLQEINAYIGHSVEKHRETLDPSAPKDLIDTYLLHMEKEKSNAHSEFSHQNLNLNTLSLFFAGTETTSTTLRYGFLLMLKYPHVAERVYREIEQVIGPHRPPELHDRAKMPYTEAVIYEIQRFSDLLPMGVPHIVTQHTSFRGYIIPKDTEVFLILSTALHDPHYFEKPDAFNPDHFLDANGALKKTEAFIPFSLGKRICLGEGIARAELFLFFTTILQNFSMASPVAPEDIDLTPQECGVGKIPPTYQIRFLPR
Nature of the data set: CYP450 inhibition, 2B6. It is filed as in vitro ADME.

The test system of the next data set is CYP. Nature of the data set: CYP induction. The note with it: at 10 μM. It is filed as in vitro ADME.
A short description of data set [2]: Liver cytosolic stability. The data set is classed as in vitro ADME, and rat. The note with it: human, mouse, rat, liver cytosol.
Data set [3] in a line: BBB-PAMPA permeability assay. The data set is classed as in vitro ADME. Conditions: pH 7.4. (PAMPA measures passive passage across an artificial lipid membrane.)
The target in the next data set is T2, CYP450 2C8 (Homo sapiens, UniProt P10632).
T2 sequence (P10632 1-490): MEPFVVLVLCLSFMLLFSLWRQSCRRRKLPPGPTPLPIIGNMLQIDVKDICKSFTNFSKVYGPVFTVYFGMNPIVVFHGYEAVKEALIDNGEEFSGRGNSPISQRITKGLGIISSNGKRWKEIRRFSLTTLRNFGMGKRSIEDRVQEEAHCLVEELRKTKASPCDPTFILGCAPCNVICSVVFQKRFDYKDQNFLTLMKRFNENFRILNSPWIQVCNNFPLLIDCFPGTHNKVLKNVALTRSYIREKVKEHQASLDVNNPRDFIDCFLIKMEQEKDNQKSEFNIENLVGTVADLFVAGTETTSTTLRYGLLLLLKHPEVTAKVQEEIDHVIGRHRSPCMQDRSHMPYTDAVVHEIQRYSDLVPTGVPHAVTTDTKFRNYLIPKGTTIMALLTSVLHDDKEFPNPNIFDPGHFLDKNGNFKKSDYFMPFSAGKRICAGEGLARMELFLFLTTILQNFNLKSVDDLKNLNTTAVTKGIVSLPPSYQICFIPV
The experiment in a line: CYP450 inhibition, 2C8. The data set is classed as in vitro ADME.

The nature of data set [4]: Mouse pharmacokinetic studies. It is filed as in vivo, CD1 mice. Conditions: male, CD1, mouse, plasma, iv, 10 mg/kg.
For data set [5], the system named is tumor LDH activity (A673 flank xenograft). The experiment in a line: In vivo LDHA activity in A673 xenograft tumor mouse model. The note with it: single IV 50 mg/kg, A673 xenograft mice.
The next data set is described as follows: Metabolite ID. The note with it: also in the presence of GSH. The data set is classed as in vitro ADME.

In the case of `Cc1ccc(C#Cc2cccc(-c3nn(-c4nc(C(=O)O)cs4)c(CC4CC4)c3Cc3ccc(S(N)(=O)=O)c(F)c3)c2)s1` [Compound 52, 2-(5-(Cyclopropylmethyl)-4-(3-fluoro-4-sulfamoylbenzyl)-3-(3((5-methylthiophen-2-yl)-ethynyl)phenyl)-1H-pyrazol-1-yl)thiazole4-carboxylic Acid], the Ames entry in “Ames assay” is “not active; also recorded: negative”. Further, the half-life (in general, the time in which the quantity being followed falls by half) in data set [1] is over 2.5 h; in [2], over 2 h. In addition, the half-inhibitory concentration (IC50) (commonly the midpoint of a concentration-inhibition curve) on CYP450 2B6 came out at 14 µM; against CYP450 2C8, 7.5 µM. In addition, the CYP induction entry in the data set with CYP is “no induction at 10 μM”. The PAMPA-BBB permeability result in [3] is reported as “low permeability”. In addition, the clearance (usually a measure of how efficiently the substance is removed, as volume per time) at 24 h in data set [4] was 10.4 mL/min/kg. Moreover, in data set [5], the “effect on LDH activity in tumors (in words)” value was “significantly reduced”. The “metabolite ID (in vitro)” value in the data set “Metabolite ID” is “no significant phase I or II metabolites”.
